According to paper PMC9374667 (Communications Biology, 2022):
Values joined by “and” are separate entries in the source; they are usually repeats but may differ in a detail not shown here. Equal entries are not always repeated.

Columns and labels:
[1] = Solubility in water and octanol and log P at 25°C; settings: for solubility: 25 °C
Source text: beyond changes in oral bioavailability and solubility. This is particularly relevant when […]
L og P is the logarithmic value of the oil-water partition coefficient P, which refers to the partition equilibrium of undissociated molecules in the oil and water phases. The log P value is closely related to the water solubility, membrane permeability, in vivo ADME process, and affinity of the compound to the receptor and plays a vital role in the permeation of compounds through biological membranes. The log P 0-5 range is optimal for oral drug penetration by passive diffusion, with poor water solubility for high log P compounds and poor lipid […]
experiments to exert drug activity in cells.

db/db mice = assay: Serum ASAT, ALAT, BUN and Cr (toxicity) in db/db mice; format: in vivo
cAMP = cAMP levels in eWAT of db/db mice (isoproterenol); format: in vivo; parameters: cAMP levels in eWAT (Figure 4l): unit not given here; settings: for cAMP levels in eWAT: db/db mice, isoproterenol stimulation; for cAMP levels in eWAT (Figure 4l): individual samples 1-6
Procedure: The epididymal adipose tissue was dissected, the fresh adipose tissue was weighed and rapidly rinsed with PBS. The adipose tissue was cut and incubated with isoproterenol (10 μM) for 2 h, and homogenized in a cold cleavage buffer to prepare the adipose tissue homogenate. Then the homogenate was centrifuged at 12,000 × g at 4 °C for 15 min, and the supernatant was collected. For 3T3-L1 adipocytes, the adipocytes were treated with or without 50 ng/ml TNF-α or 3 μg IKKε plasmid or 4 μM siIKKε for 24 h and then treated with or without 10 μM ISO or 10 μM BJ for 24 h. Then the cells were lysed in a petri dish, scraped off, and centrifuged at 12,000 × g at 4 °C for 15 min before the supernatant was collected.
Glycerol or cAMP content in adipose tissue and 3T3-L1 adipocytes was determined by a glycerol assay kit (Nanjing Jiancheng Bioengineering Institute, Nanjing, China) or a mouse cAMP assay kit (Nanjing Jiancheng Bioengineering Institute, Nanjing, China). And concentrations were further standardized according to protein concentration.

TNF-α and IL-6 [2] = assay: Serum levels of TNF-α and IL-6 (ELISA); format: in vivo, mice; parameters: TNFα / IL-6: unit not given here; settings: for IL-6: Figure 5i; for Serum TNF-α and IL-6 levels: db/db mice, 5 weeks of treatment
Procedure: (§1) The serum was collected by centrifugation at 3000 × g at 4 °C for 15 min and stored at −80 °C until analysis. TG, TC, LDL-C, HDL-C, and FFA were routinely tested on a Chemray 240 automatic biochemical analyzer (Chemray 240, Shenzhen, China). Serum levels of mouse adiponectin, interleukin6 (IL-6), tumor necrosis factor-α (TNF-α) were measured using commercial enzyme-linked immunosorbent assay (ELISA) kits (Nanjing Jiancheng Bioengineering Institute, Nanjing, China) and according to the manufacturer’s instructions. The levels of IL-6, TNF-α in 3T3-L1 adipocyte culture supernatant were also detected by ELISA.

3T3-L1 adipocytes = assay: Oil Red O staining and lipid quantification; format: cell-based, Murine; settings: for Oil Red O staining of differentiated 3T3-L1 adipocytes spectrophotometric analysis: Figure 7b, replicates;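 on Oil Red O staining of differentiated 3T3-L1 adipocytes spectrophotometric analysis: treatment added on day 8 of adipocyte differentiation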
Procedure: Meanwhile, we conducted in vitro experiments to validate the role of BJ in adipocytes. […] These findings were similar to the results in vivo.
Murine 3T3-L1 preadipocytes were the kind gift of Prof. Wenbin Shang and Prof. Xizhong Yu (Nanjing University of Chinese Medicine, China). Cells were cultured in Dulbecco’s modified Eagle’s medium (DMEM) supplemented with 10% (vol/vol) fetal bovine serum (FBS), 1% (vol/vol) penicillin/streptomycin in an incubator at 37 °C and 5% CO2 (until confluent). Two days after the preadipocytes reached 100% confluency (designated day 0), the cells were cultured in DMEM with 10% FBS supplemented with IBMX (0.5 mM final concentration), DEX (1 μM final concentration), and insulin (10 μg/ml final concentration) for 3 days (days 0–3). Then the cells were cultured in a medium containing insulin (10 μg/ml final concentration) for another 3 days (days 3–6).
Lipid accumulation in differentiated adipocytes was observed by Oil Red O staining. The differentiated 3T3-L1 adipocytes were washed with PBS for 3 times and fixed with 4% paraformaldehyde for 30 min at room temperature. The fixed 3T3-L1 adipocytes were washed with PBS for 3 times and stained with Oil Red O solution at room temperature for 60 min. Stained lipid droplets were photographed and then eluted with 100% isopropanol stained Oil Red O. Finally, the optical density (OD) value of the eluent was measured at 510 nm wavelength with a microplate reader.

TNF-α and IL-6 [3] = assay: TNF-α and IL-6 in supernatant of TNF-α induced 3T3-L1 adipocytes (ELISA); format: cell-based, Murine; parameters: levels of TNF-α / levels of IL-6: unit not given here; settings: for Levels of TNF-α and IL-6 in the supernatant: 3T3-L1 adipocytes treated with TNF-α; for levels of TNF-α: Figure 7e
Procedure: We next examined the role of BJ on TNF-α induced inflammation of differentiated 3T3-L1 adipocytes.
as §1

p-TBK1, p-AMPKα, UCP1 = assay: Western blotting of TNF-α induced 3T3-L1 adipocytes; format: cell-based, Murine; parameters: p-TBK1 / p-AMPKα (western blotting, Figure 7j) / UCP1 (western blotting, Figure 7k): unit not given here; settings: for p-TBK1: Figure 7i, replicates; for UCP1 (western blotting, Figure 7k) / p-AMPKα (western blotting, Figure 7j): 3T3-L1 adipocytes, replicates 1-3
Procedure: The adipose tissue or 3T3-L1 adipocytes were homogenized by ultrasound in an ice‐cold RIPA lysis buffer containing 1% PMSF and centrifuged at 12,000 × g at 4°C for 15 min to collect the supernatant. The BCA protein assay kit (Beyotime, Shanghai, China) was used to detect the total protein concentration. Proteins (20-30 μg) of the sample were separated by 10% SDS-PAGE gel and transferred onto polyvinylidene difluoride (PVDF) membranes. Then the PVDF membranes were blocked in 5% skim milk powder in TBS containing 1% Tween-20 (TBST) for 2 h at room temperature and washed with TBST for 3 times. The membranes were incubated with the appropriate primary antibody, IKKε (1:1000 dilution), TBK1 (1:1000 dilution), p-TBK1 Ser172 (1:1000 dilution), p-AMPKα Thr172 (1:1000 dilution), UCP1 (1:1000 dilution), and GAPDH (1:1000 dilution) in the blocking buffer solution at 4 °C overnight. After washing, the membranes were incubated with horseradish peroxidase-conjugated secondary antibodies (in 5% skim milk powder) for 1 h at room temperature. Finally, the membranes were treated with enhanced chemiluminescence agents (Tanon, Shanghai, China) and the signals were monitored using the Tanon 5200 multi chemiluminescent imaging system (Tanon, Shanghai, China).

[4] = 150mg/kg, db/db mice, individual animals

Question: Which results are given for CC(C)Cc1ccc(C(C)C(=O)[O-])cc1.COc1ccc2cc3[n+](cc2c1OC)CCc1cc2c(cc1-3)OCO2.O.O.O.O [BJ, berberine-ibuprofen]?
Answer: log P [1]: 1.564; AST (db/db mice; [4]): 123.8 U/L; Fasting serum ASAT, ALAT, BUN, and Cr levels (db/db mice; mouse, in vivo): reduced fasting serum ASAT, ALAT, BUN, and Cr levels; cAMP levels in eWAT (cAMP): increased the cAMP levels; cAMP levels in eWAT (Figure 4l) (cAMP; db/db+ISO+BJ 75mg/kg): 0.344 (2×) and 0.3396 and 0.3778 and 0.3937 and 0.3516; cAMP levels in eWAT (Figure 4l) (cAMP; db/db+ISO+BJ 150mg/kg): 0.3909 and 0.4246 and 0.4135 (2×) and 0.4162 and 0.4061; IL-6 (TNF-α and IL-6 [2]; BJ 75mg/kg, individual values): 26.97 and 31.48 and 28.06 and 26.92 and 26.5 and 27.07; IL-6 (TNF-α and IL-6 [2]; BJ 150mg/kg, individual values): 19.1 and 22.16 and 23.89 and 18.97 and 21.55 and 28.79; Serum TNF-α and IL-6 levels (TNF-α and IL-6 [2]): significantly lower than those in the vehicle-treated group; Oil Red O staining of differentiated 3T3-L1 adipocytes spectrophotometric analysis (3T3-L1 adipocytes; 3μM BJ): 0.6023 O.D. and 0.5794 O.D. and 0.5902 O.D. and 0.5901 O.D. and 0.5958 O.D. and 0.5823 O.D.; Oil Red O staining of differentiated 3T3-L1 adipocytes spectrophotometric analysis (3T3-L1 adipocytes; 10μM BJ): 0.6036 O.D. and 0.5893 O.D. and 0.5433 O.D. and 0.5202 O.D. and 0.5568 O.D. and 0.48 O.D.; Accumulation of lipid droplets (3T3-L1 adipocytes; differentiated 3T3-L1 adipocytes, BJ 3 μM and 10 μM, 24 h, Oil Red O): reduced the accumulation of lipid droplets in 3T3-L1 adipocytes in a dose-dependent manner; Levels of TNF-α and IL-6 in the supernatant (TNF-α and IL-6 [3]): significantly reduced the levels of TNF-α and IL-6; levels of TNF-α (TNF-α and IL-6 [3]; TNF-α(50ng/ml)+10μM BJ, replicates): 96.425 and 110.916 and 111.046 and 97.6978 and 106.64 and 114.538; p-TBK1 (p-TBK1, p-AMPKα, UCP1; Tnfa + 3um BJ): 0.5551 and 0.4207 and 0.3485; p-TBK1 (p-TBK1, p-AMPKα, UCP1; Tnfa + 10um BJ): 0.5649 and 0.4409 and 0.466; Expression of p-AMPKα, UCP1, and p-TBK1 (p-TBK1, p-AMPKα, UCP1; TNF-α induced 3T3-L1 adipocytes, BJ treatment for 24 h): increased significantly; UCP1 (western blotting, Figure 7k) (p-TBK1, p-AMPKα, UCP1; Tnfa + 3um): 0.6944 and 0.7423 and 0.5922; p-AMPKα (western blotting, Figure 7j) (p-TBK1, p-AMPKα, UCP1; Tnfa + 3um): 0.6086 and 0.4894 and 0.5999; UCP1 (western blotting, Figure 7k) (p-TBK1, p-AMPKα, UCP1; Tnfa + 10um): 1.271 and 1.387 and 0.9844; p-AMPKα (western blotting, Figure 7j) (p-TBK1, p-AMPKα, UCP1; Tnfa + 10um): 0.7332 and 0.6589 and 0.63

Question: Which results are given for COc1ccc2cc3[n+](cc2c1OC)CCc1cc2c(cc1-3)OCO2 [BBR, Berberine chloride dihydrate]?
Answer: solubility ([1]; octanol, organic solvent or mixture): 14.3 ± 0.41 µM; logP ([1]; octanol/water): -0.041; solubility ([1]; water): 15.8 ± 0.81 µM; ALT (db/db mice; [4]): 86 U/L and 97 U/L and 103 U/L and 92 U/L and 85 U/L; AST (db/db mice; [4]): 125.4 U/L and 140.1 U/L and 155.9 U/L and 114.8 U/L and 154.6 U/L and 172.8 U/L; BUN (db/db mice; [4]): 8.17 mmol/L and 9.82 mmol/L and 8.93 mmol/L and 9.15 mmol/L and 9.31 mmol/L and 8.1 mmol/L; Cr (db/db mice; [4]): 17.7 µmol/L and 16.3 µmol/L and 16.4 µmol/L and 17.9 µmol/L and 17.6 µmol/L; Fasting serum ASAT, ALAT, BUN, and Cr levels (db/db mice; db/db mice, 5 weeks of treatment, vs vehicle control): reduced fasting serum ASAT, ALAT, BUN, and Cr levels; cAMP levels in eWAT (cAMP): increased the cAMP levels; cAMP levels in eWAT (Figure 4l) (cAMP; db/db+ISO+BBR 150mg/kg): 0.3703 and 0.3189 and 0.32 and 0.3561 and 0.3523 and 0.3716; IL-6 (TNF-α and IL-6 [2]; BBR 150mg/kg, individual values): 24.23 and 30 and 30.18 and 32.12 and 23.56 and 26.45; TNFα (TNF-α and IL-6 [2]; Figure 5h, BBR 150mg/kg, individual values): 161.97 and 148.57 and 185.98 and 167.03 and 204.23 and 186.47; Serum TNF-α and IL-6 levels (TNF-α and IL-6 [2]): significantly lower than those in the vehicle-treated group; Oil Red O staining of differentiated 3T3-L1 adipocytes spectrophotometric analysis (3T3-L1 adipocytes; 10μM BBR): 0.6307 O.D. and 0.6591 O.D. and 0.6319 O.D. and 0.6294 O.D. and 0.6584 O.D. and 0.6194 O.D.; Levels of TNF-α and IL-6 in the supernatant (TNF-α and IL-6 [3]): significantly reduced the levels of TNF-α and IL-6; levels of TNF-α (TNF-α and IL-6 [3]; TNF-α(50ng/ml)+10μM BBR, replicates): 111.895 and 109.61 and 99.3949 and 99.3623 and 111.275 and 110.361; levels of IL-6 (TNF-α and IL-6 [3]; Figure 7f, TNF-α(50ng/ml)+10μM BBR, replicates): 17.4575 and 16.5244 and 17.8031 and 16.7594 and 17.9828 and 16.9875; p-TBK1 (p-TBK1, p-AMPKα, UCP1; Tnfa + 10um BBR): 0.5119 and 0.483 and 0.454; UCP1 (western blotting, Figure 7k) (p-TBK1, p-AMPKα, UCP1; Tnfa + 10um): 0.8587 and 1.148 and 0.9274; p-AMPKα (western blotting, Figure 7j) (p-TBK1, p-AMPKα, UCP1; Tnfa + 10um): 0.5058 and 0.5536 and 0.7822
